According to patent US11491127B2, “Therapeutic use of compounds” (UCL BUSINESS LTD, priority 2010, dated 2022):
Where two headings read alike, the source gives them in different places.

Columns and labels:
[1] = cited from earlier work
[2] = system: PTZ-induced epileptiform activity in entorhinal cortex-hippocampal slices; assay: In vitro PTZ acute seizure model, entorhinal cortex-hippocampus slices; type: cell-based, rat; conditions: PTZ 2 mM, [K+] 6 mM; compounds equimolar 1 mM; 30 to 40 minutes after application
Experimental: The rats (p21) were decapitated after killing by intraperitoneal injection with an overdose of pentobarbitone (500 mg/kg). The brain was removed and placed in ice-cold sucrose solution in mM: NaCl 87, KCl 2.5, MgCl2 7, CaCl2 0.5, NaH2PO4 1.25, sucrose 75, glucose 25, equilibrated with 95% 02/5% CO2 (pH 7.4). Horizontal combined entorhinal cortex-hippocampus slices (350 μm) were prepared with a Leica vibratome (Leica V T1200S) and were then stored in an interface chamber that contained artificial cerebrospinal fluid solution (aCSF) containing in mM: NaCl 119, KCl 2.5, MgSO4 4, CaCl2 4, NaHCO326.2, NaH2PO4 1, glucose 11, and gassed with 95% O2/5% CO2. They were stored for over one hour before being transferred to a submersion recording chamber continually perfused with carbogenated aCSF for recording. Field potential recordings were made by placing glass microelectrodes (˜1-2 MΩ) filled with aCSF solution in stratum radiatum of CA1. Bipolar stimulating electrodes were positioned in the Schaffer collateral/commissural fibre pathway in stratum radiatum to confirm slice viability. In the PTZ acute seizure model, PTZ (2 mM) was added to the perfusate and [K+] was increased to 6 mM in order to induce epileptiform activity (Armand et al., 1998). In the low Mg^2+ acute seizure model, Mg^2+ free aCSF was applied to generate rhythmic short recurrent discharges. Novel anticonvulsants were applied once the frequency and amplitude of the epileptiform discharges were stable over a period of 10 min. Anticonvulsant effects were evaluated by measuring the variation of frequency of the discharges every minute. The data acquired from the 30 to 40 minutes after application novel anticonvulsants were compared by ANOVA followed by post-hoc testing using Tukey test, using SPSS statistical analysis.

[3] = system: self-sustaining status epilepticus in Sprague Dawley rats; assay: In vivo status epilepticus (perforant path stimulation); parameters: species or system rat; conditions: for effectiveness in status epilepticus model: previously found by the inventors
Experimental: This method has been described in detail previously (Walker et al., 1999). In brief, male Sprague Dawley rats […] were anesthetized with 1-2% isoflurane in O2. An earth electrode was positioned subcutaneously, and a monopolar recording electrode was implanted stereotactically into the right hippocampus (coordinates, 2.5 mm lateral and 4 mm caudal from bregma). A bipolar stimulating electrode was implanted in the right hemisphere and advanced into the angular bundle (coordinates, 4.4 mm lateral and 8.1 mm caudal from bregma) to stimulate the perforant path. The depths of the electrodes were adjusted to maximize the slope of the dentate granule cell field potential (Guo et al., 1999). The electrodes were held in place with dental acrylic and skull screws. The animals were allowed to recover from anaesthesia. Seven days later, the perforant path was electrically stimulated with 4-5 mA 50 μsec monopolar pulses at 20 Hz for 2 hr; this induced self-sustaining status epilepticus. After 10 min of self-sustaining status epilepticus, compounds or vehicle were administered and the behavioural seizures and EEG were monitored for 3 hours. At this point diazepam (10 mg/kg) was administered to all animals to stop the status epilepticus. Groups were compared by ANOVA followed by post-hoc testing using Tukey test, using SPSS.

[4] = system: fatty acid CoA activation in Dictyostelium cell extracts; assay: Fatty acid activation (palmitic acid to PaA-CoA) in cell extracts; type: biochemical, Dictyostelium discoideum; conditions: VPA 1.0 mM with cell extracts or 10 min, 1 mM pre-treatment of cells
Experimental: Screening of a REMI library was carried out as previously described (Kuspa & Loomis, 2006) using A×2 background, with VPA resistant mutants selected for the ability to develop in the presence of 1 mM VPA on R. planticola. Identification of the ablated gene, enabled the identified PLAa (DDB_G0278525; SEQ ID NO: 16) to be recapitulated using by homologous recombination of a knockout cassette. Primers used for amplifying region within the open reading frame of the gene were (5′ […] (SEQ ID NO: 17) and 3′ […] (SEQ ID NO: 18), cloned by pCR2.1 TOPO (Invitrogen Ltd)), cloned into pUC19 using EcoRI digestion, and Sinai digested fragment from pBLPblp (Falx et al, 2004) was inserted into the EcoRV site of the insert. Genetic ablation was confirmed by PCR analysis. Developmental resistance to VPA was assessed by plating cells (1×10^6) on 47 mm nitrocellulose filters (Millipore) soaked in phosphate buffer containing either 1 mM VPA or control, and development was recorded after 30 h unless otherwise stated. Development images were observed using a Leica CLS 150× microscope and images recorded using QICAM FAST 1394 camera. Fatty acid activation was determined by the method established by Wilson et al. (Wilson et al, 1982) with slight modifications. […]

[5] = system: lipid droplets in Dictyostelium cells; assay: Bodipy fatty acid lipid droplet accumulation; type: cell-based, Dictyostelium discoideum; conditions: 0.5 mM VPA; bodipy-labelled lipid
[6] = system: release of 3H arachidonic acid / palmitic acid radiolabel from Dictyostelium cells; assay: Fatty acid release (3H radiolabel release from labelled cells); type: cell-based, Dictyostelium discoideum

Structure (SMILES): CCCC(CCC)C(=O)O [VPA, 2-propylpentanoic acid, reference compound]
- concentration in plasma in therapeutic use ([1]; DSM IV, 2000): 400 to 700 µM
- concentration in plasma of patients receiving treatment ([1]; Silva et al., 2008): 280 to 700 µM
- frequency of epileptiform discharges (seizure discharge frequency) [2]: 75.1±1.7%
- seizure control in words ([3]; 400 mg/kg, 3 hour test period): strongly attenuated seizures
- animals in which seizures completely stopped ([3]; 400 mg/kg, after 2 hours, 7 animals per group): did not terminate the seizures in any
- spike amplitude ([3]; 400 mg/kg, first hour): 75.2±9.2%
- spike amplitude ([3]; 400 mg/kg, second hour): 61.1±8.3%
- spike amplitude ([3]; 400 mg/kg, third hour): 55.1±6.6%
- effectiveness in status epilepticus model ([3]; high dose 600 mg/kg): effective
- effectiveness in status epilepticus model ([3]; lower dose 400 mg/kg): partial effectiveness
- effect on fatty acid activation (PaA-CoA) [4]: no effect
- intensity and diameter of fluorescent lipid droplets compared to untreated cells [5]: increase
- activity at 500 µM ([6]; Dictyostelium, 0.5 h, Table 3, 3H-AA labelled cells, 30 min, 0.5 mM treatment, read-out: AA release [% of control]): 50%
- IC50 ([6]; Dictyostelium, 3H arachidonic acid labelled cells, read-out: IC50 of decrease in radiolabel release): 89 µM
- IC50 ([6]; Dictyostelium, 3H palmitic acid labelled cells, read-out: IC50 of inhibition of tritiated palmitic acid release): 163 µM
- radiolabel release activity relative to control ([6]; Table 3, 30 min, 0.5 mM): 50 % of control
